Test results published in US20200362314A1, “METHODS TO PRODUCE ADULT-LIKE CARDIOMYOCYTES DERIVED FROM INDUCED PLURIPOTENT STEM CELLS FOR DRUG DISCOVERY” (THE REGENTS OF THE UNIVERSITY OF COLORADO, A BODY CORPORATE, priority 2019, published 2020).
“Also recorded” adds a separate entry of the source. Marks after values point to notes of the source that are not given here.

Assays:
hiPSC-CMs [1] = experiment: Hypertrophic response (cell area) of hiPSC-CMs; assay type: cell-based, human; conditions: for increase in cell area: vs vehicle
Protocol: Panels A-B show an image and graph, respectively, depicting hiPSC-CMs cultured under indication conditions and treated with vehicle, 10 μM phenylephrine (PE) or 10 μM PE and 1 μM JQ-1 (a BET Bromodomain inhibitor) for 48 hours, then fixed and stained for α-actinin (green) and Hoescht 3342 (blue). Representative images are shown in panel A. Cell area of hiPSC-CMs were quantified in panel B. Cell areas measured on 616-789 cardiomyocytes pooled from four independent inductions. Panel C is a graph depicting qPCR for B-type natriuretic peptide, normalized to 18S rRNA and shown as fold change relative to GLUC, from cDNA prepared from four independent inductions. Panels D-F depict data showing characterization of cardiac hypertrophy in Danon hiPSC-CMs under various culture conditions, and their comparison to the hypertrophy observed in human patients. In Panel D, hypertrophy (as assessed by left ventricular posterior wall thickness, LVPW) in the hearts of human patients is shown. […] Cell areas measured on 356-1056 cardiomyocytes pooled from two independent inductions. *, **, **** p<0.05, 0.01, 0.0001, Kruskal-Wallis test followed by Dunn's multiple comparison test (B,D) or one way ANOVA followed by Tukey's multiple comparison test on log2 transformed data (C).
Cell imaging studies: Cells on small unpatterned or patterned surfaces in 24 well plates were used for immunofluorescent staining. Briefly, cells were washed with PBS, then fixed either with 4% paraformaldehyde (PFA) in PBS (10 minutes at room temperature) or a 1:1 mixture of methanol and acetone (5minutes at -20° C.). After fixation, cells were washed with PBS, then permeabilized with 0.2% Triton-X 100 in PBS (10 minutes at room temperature). Methanol/acetone fixation was used for images shown in FIG. 1 (staining for α-actinin, MYBPC3, c-TNI, and MLC-2V). PFA fixation was used for all other experiments. All measurements of cell area and hypertrophy were conducted on PFA fixed cells.
For cell area measurements, cells were PFA fixed and stained for α-actinin as described above, then counterstained with HCS CellMask™ Orange (Thermo Fisher Scientific, Waltham, Mass.), diluted 1:2, 500 in PBS, for 30 minutes at room temperature.
All imaging was conducted on an EVOS FL Cell Imaging System (Thermo Fisher Scientific, Waltham, MA). All image analysis including measurements of cell area, circularity, and sarcomere length were conducted using Image J.

[2] = tested on: adult mouse ventricular cardiomyocytes (AMVCMs); experiment: Hypertrophic response (cell area) of adult mouse ventricular cardiomyocytes; assay type: cell-based
Protocol: (§1) Panels A-B show representative images of BNP staining and quantification of BNP and pro-NT-BNP-positive hiPSC-CMs cultured and treated as described in FIGS. 12A-B. Panels C-D show representative brightfield images and cell area of AMVCMs under indicated conditions. AMVCMs were isolated from 8-12 week old adult mice then treated with vehicle, 10 μM phenylephrine (PE) or 10 μM PE and 1 μM JQ-1 for 72 hours, then fixed. **** p<0.0001, Kruskal-Wallis test followed by Dunn's multiple comparison test. Cell areas measured on 664-706 cardiomyocytes pooled from four separate cardiomyocyte isolations.
Cardiomyocyte Isolation: 15 minutes prior to beginning isolation, mice were injected with 300 μL of heparin (10,000 units/mL). Mice were then anesthetized via inhalation of isofluorane, and when becoming unresponsive to toe pinch were killed via cervical dislocation. The chest was then opened, and the heart was removed rapidly and placed in ice-cold perfusion buffer (10 mM creatine monohydrate, 30 mM Taurine, 5.6 mM Dglucose, 4.6 mM NaHCO3, 10 mM BDM, 120 mM NaCl, 15 mM KCl, 0.6 mM Na2HPO4, 0.6 mM KH2PO4, 1.2 mM MgSO4, 10 mM Hepes, filtered at 0.40 μm, pH 7.4). The heart was washed briefly in perfusion buffer, and excess fat/thymus tissue trimmed off. […] Cells were then inspected and counted, and if <60% of myocytes were rod-shaped (viable) the cells were not used for experimentation. […]

[3] = tested on: adult rat cardiac (ARVM) myofibrils; conditions: 48 hours of PE treatment; cited from earlier work
neonatal cardiomyocytes = conditions: in vitro; cited from earlier work
adult cardiomyocytes = conditions: in vitro, typical response; cited from earlier work
[4] = tested on: myofibrils from MPAT hiPSC-CMs; experiment: Myofibril mechanics of MPAT hiPSC-CMs; assay type: cell-based, human
Description: FIG. 13 is graphs showing results that indicate that phenylephrine treatment induces changes in myofibril relaxation which are similar to those observed in human hypertrophic cardiomyopathy. […] Myofibrils were isolated from 4 donor and 4 HCM hearts, with at least 6 myofibrils isolated per heart. […] 44-45 myofibrils isolated per condition, pooled from 3 independent inductions. Complete tables of myofibril data from these experiments are available in Tables 4 and 5. *, **, **** p<0.05, 0.01, 0.0001, Student's t test on log2-transformed data.
To isolate myofibrils from adult mouse cardiomyocytes and stem cell derived cardiomyocytes, cells were lysed and myofibrils prepared using an adaption from a recently described method. In brief, cells were lysed in relaxing solution with protease inhibitors and 20% (w/vol) sucrose, using a scraper. The lysed cell solution was then transferred into a microfuge tube and incubated on ice for 10 minutes with periodic vortexing. The cell/myofibril solution was then centrifuged at 1,500 g for 5 minutes at 4° C., and the cell/myofibril pellet resuspended in fresh relaxing solution with protease inhibitors. This process was repeated twice to remove any residual sucrose, and the cell/myofibril solution was then homogenized.
Myofibril mechanics were quantified using the fast solution switching technique on a custom-built experimental rig. Myofibril suspensions were plated onto a temperature controlled glass coverslip (15° C.) containing relaxing solution. Single myofibrils and myofibril bundles were then picked up from the surface of this coverslip and mounted between two glass micro-tools. One tool, the stretcher, was linked to a motor which could produce rapid changes in length (Mad City Labs, Madison, Wis.), while the second tool was a calibrated cantilevered force probe (6-8 μm/μN; frequency response 2-5 KHz), which was colored with black ink to increase probe sensitivity. After mounting myofibrils between microtools, they were stretched to 5-10% above slack myofibril length. Average sarcomere lengths and myofibril diameters were measured using ImageJ software. Mounted myofibrils were then activated and relaxed by rapidly changing the position of a double-barreled pipette simultaneously releasing activating solution (pCa 4.5) and relaxing solution (pCa 9.0) from each barrel. By rapidly changing the position of the pipette, the mounted myofibril could be induced to activate and relax. From the activation/relaxation trace produced, the following parameters were acquired: resting tension, the passive tension produced in relaxing conditions, induced by a push on the stretcher; maximum tension (mN/mm2), the greatest level of active tension generated by the myofibril at full calcium activation (pCa 4.5); activation kinetics (kAct), the rate constant of tension development following myofibril activation; reactivation kinetics (kTr), the rate constant of tension redevelopment following myofibril release/stretch to break cross bridges; slow phase relaxation kinetics (kREL,SLOVV), the kinetics of the initial slow/linear phase of myofibril relaxation, slow phase relaxation time (TLIN), the duration of the slow phase of relaxation, from the switching of the pipette to relaxing solution to the beginning of the fast phase of relaxation; fast phase relaxation kinetics (kREL,FAST), the rate constant of the fast (exponential) phase of relaxation.

myofibrils from AMVCMs = experiment: Myofibril mechanics of AMVCMs; assay type: cell-based, mouse
Protocol: Myofibril mechanics data from AMVCMs isolated from 8-12 week old adult mice and treated with vehicle or 10 μM PE for 72 hours before myofibril isolation. Note that rodent myofibrils display profoundly faster kinetics of both activation and relaxation at baseline compared to myofibrils from human hiPSC-CMs and cardiac tissue. *, p<0.05, Student t test. 21-26 myofibrils were isolated from three separate cardiomyocyte isolations. A complete table of myofibril mechanics data on AMVCMs can be seen in Table 6.
Cardiomyocyte Isolation: 15 minutes prior to beginning isolation, mice were injected with 300 μL of heparin (10,000 units/mL). Mice were then anesthetized via inhalation of isofluorane, and when becoming unresponsive to toe pinch were killed via cervical dislocation. The chest was then opened, and the heart was removed rapidly and placed in ice-cold perfusion buffer (10 mM creatine monohydrate, 30 mM Taurine, 5.6 mM Dglucose, 4.6 mM NaHCO3, 10 mM BDM, 120 mM NaCl, 15 mM KCl, 0.6 mM Na2HPO4, 0.6 mM KH2PO4, 1.2 mM MgSO4, 10 mM Hepes, filtered at 0.40 μm, pH 7.4). The heart was washed briefly in perfusion buffer, and excess fat/thymus tissue trimmed off. The aorta was then cannulated using a blunted 20-gauge needle, and was mounted on a Langendorff apparatus (Radnoti, Covina, Calif.) with a heating pump kept at 37° C. for the duration of the isolation (VWR International, Radnor, Pa.). Hearts were mounted on the Langendorff apparatus within 3-7 minutes of removing from the body. The heart was then perfused in retrograde fashion at a rate of 4 mL/minute, driven by a Rainin™ Rabbit peristaltic pump (Mettler Toledo, Columbus, Ohio). To remove blood from the heart's vessels, it was first perfused for 3 min using perfusion buffer. Buffer was then switched to calcium-free digestion buffer (perfusion buffer with 1.3 mg/mL collagenase II) for 3 min and was then switched to digestion buffer supplemented with […] CaCl2. Hearts were perfused with high-calcium digestion buffer for another 6 to 10 minutes, once the heart became extremely soft and compliant. The heart was then removed from the cannulating needle and placed in a 60 mm culture dish with 2.5 mL high-calcium digestion buffer. The atria and right ventricle were then removed, and the left ventricle dissociated using a pipette and forceps. Once the heart was completely dissociated, digestion was halted by the addition of 7.5 mL stopping buffer (perfusion buffer with 10% (vol/vol) FBS and […] CaCl2). The cardiomyocyte suspension was then filtered through 200-μm mesh into a 50-mL conical tube, and the culture dish washed with an additional 10 mL stopping buffer, which was then filtered into the conical tube as well. This cell suspension was then allowed to incubate for 10 minutes at room temperature, allowing a cardiomyocyterich pellet to form. The fibroblast-rich supernatant was discarded, while the pellet with was resuspended in 10 mL of stopping buffer. 100 mM CaCl2 solution was then added to this buffer in a stepwise manner, with 2-min intervals between each addition: calcium concentration was first increased to 112.5 μmol/L, then to 312.5 μmol/L, then 712.5 μmol/L, and finally to 1.4 mmol/L. The cell suspension was then centrifuged at 1,000×g for 3 min at room temperature. Cells were then inspected and counted, and if <60% of myocytes were rod-shaped (viable) the cells were not used for experimentation. Cardiomyocytes were then resuspended in plating medium [perfusion buffer with 2.5% (vol/vol) FBS, 1% (vol/vol) penicillin/streptomycin (P/S), and 1.4 mM CaCl2, and plated on either 6 well plates (for myofibril mechanics) or 24 well plates (for hypertrophy imaging) coated with 9-10 μg/mL Laminin. […]

hiPSC-CMs [5] = experiment: BNP / pro-NT-BNP immunofluorescent staining of hiPSC-CMs; assay type: cell-based, human; conditions: GLUC hiPSC-CMs; 10 μM PE, 48 hours
Protocol: as §1
For B-type natriuretic peptide (BNP) staining, an adaption of a previously published method was used: cells were PFA fixed, then blocked and permeabilized for 30 minutes with 5% milk/0.1% Triton X-100/PBS (blocking solution) for 30 minutes at room temperature. Cells were then incubated with pro-BNP antibody diluted in blocking solution overnight at 4° C. Cells were then washed four times in 0.05% Triton-X 100/PBS for 5 minutes, and incubated with secondary antibody diluted in blocking solution for hour at room temperature. Cells were then washed twice in 0.05% Triton-X 100/PBS for 5 minutes, counterstained with Hoescht 3342 as described above, and washed twice more.
All imaging was conducted on an EVOS FL Cell Imaging System (Thermo Fisher Scientific, Waltham, MA). […]

[6] = MPAT hiPSC-CMs, 10 μM PE, 48 hours, mean ± SEM

## Cc1sc2c(c1C)C(c1ccc(Cl)cc1)=N[C@@H](CC(=O)OC(C)(C)C)c1nnc(C)n1-2 [JQ-1]
hiPSC-CMs [1]; GLUC hiPSC-CMs, 10 μM PE and 1 μM JQ-1, 48 hours
  effect on cell area: profoundly reduced cell area; also recorded: reduced cell area significantly beyond baseline
hiPSC-CMs [1]; MM hiPSC-CMs, 10 μM PE and 1 μM JQ-1, 48 hours
  reduction of cell area relative to PE-treated cells: 17%
hiPSC-CMs [1]; MPAT hiPSC-CMs, 10 μM PE and 1 μM JQ-1, 48 hours
  reduction of cell area relative to PE-treated cells: 31%
[2]; 10 μM PE and 1 μM JQ-1, 72 hours
  decrease in cell area: 11%

## CNC[C@H](O)c1cccc(O)c1 [PE, phenylephrine]
hiPSC-CMs [1]; MM hiPSC-CMs, 10 μM PE, 48 hours
  increase in cell area: 29%
hiPSC-CMs [1]; MPAT hiPSC-CMs, 10 μM PE, 48 hours
  increase in cell area: 19%
hiPSC-CMs [1]; hiPSC-CMs cultured in glucose-containing medium (GLUC), 10 μM PE, 48 hours
  effect on cell area: no effect; also recorded: no hypertrophic response
[3]
  effect on myofibril calcium sensitivity: increased myofibril calcium sensitivity
  effect on the kinetics of myofibril activation or relaxation: no effect
Neonatal cardiomyocytes
  increase in cell area: 50-100%
Adult cardiomyocytes
  increase in cell area: 10-30%
[4]; [6]
  Max. tens.: 44.04 ± 5.05 mN/mm^2
  Rest. tens.: 6.15 ± 0.90 mN/mm^2
  kACT: 1.03 ± 0.08 s⁻¹
  kREL, FAST: 8.64 ± 0.77* s^−1
  kREL, SLOW: 0.58 ± 0.12 s⁻¹
  kTR: 0.80 ± 0.06 s⁻¹
  tLIN: 113.6 ± 6.2**** mSec
[4]; hiPSC-CMs, PE vs vehicle (Table 5)
  shortening of linear phase of relaxation: more than 80 msec
[2]; 10 μM PE, 72 hours
  increase in cell area: 16%
Myofibrils from AMVCMs; 10 μM PE, 72 hours, mean ± SEM
  Max. tens.: 68.55 ± 6.39 mN/mm^2
  Rest. tens.: 6.94 ± 1.07 mN/mm^2
  kACT: 4.45 ± 0.33 s⁻¹
  kREL, FAST: 36.61 ± 4.59 s⁻¹
  kREL, SLOW: 1.83 ± 0.32 s⁻¹
  kTR: 3.12 ± 0.30 s⁻¹
  tLIN: 45.83 ± 2.58* mSec
Myofibrils from AMVCMs; PE vs PBS (Table 6)
  shortening of linear phase of relaxation: ~10 ms
hiPSC-CMs [5]
  cells staining positive for BNP expression: not increased
